Data: ChEMBL document CHEMBL1201862, “PubChem BioAssay data set” (2004)
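Step 1: Grow cells in 96-well plates. Step 2: Expose to compound for 48 hours at 5 concentrations. Step 3: Interpolate endpoints linearly; if unreached, use highest concentration. At the GI50, growth is halved.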 Activity calls are given as the source filed them. Cut-off read from the data, not from the text of the source: active = GI50 up to about 1.1 µM and inactive = higher.

How the values were obtained:
Assay in all cases: growth of human tumour cells (NCI), 48 h
[1] = tested on: U-251
[2] = tested on: M14
[3] = tested on: COLO 205
[4] = tested on: NCI-H226
[5] = tested on: A549
[6] = tested on: Malme-3M
[7] = tested on: DU-145
[8] = tested on: MDA-N
[9] = tested on: HOP-62
[10] = tested on: 786-0
[11] = tested on: SW-620
[12] = tested on: NCI/ADR-RES
[13] = tested on: OVCAR-3
[14] = tested on: NCI-H23
[15] = tested on: KM12
[16] = tested on: PC-3
[17] = tested on: Hs-578T
[18] = tested on: HT-29
[19] = tested on: T47D
[20] = tested on: BT-549

Structure (SMILES)	GI50 [1]	GI50 [2]	GI50 [3]	GI50 [4]	GI50 [5]	GI50 [6]	GI50 [7]	GI50 [8]	GI50 [9]	GI50 [10]	GI50 [11]	GI50 [12]	GI50 [13]	GI50 [14]	GI50 [15]	GI50 [16]	GI50 [17]	GI50 [18]	GI50 [19]	GI50 [20]
COc1cc([C@@H]2c3cc4c(cc3C[C@H]3COC(=O)[C@@H]32)OCO4)cc2c1OCO2 [AUSTROBAILIGNAN 1]	< 0.01 µM (active)	< 0.01 µM (active)	0.0108 µM (active)	< 0.01 µM (active)	< 0.01 µM (active)	< 0.01 µM (active)	< 0.01 µM (active)	< 0.01 µM (active)	< 0.01 µM (active)	< 0.01 µM (active)	< 0.01 µM (active)	< 0.01 µM (active)	< 0.01 µM (active)	< 0.01 µM (active)	0.132 µM (active)	< 0.01 µM (active)	< 0.01 µM (active)	< 0.01 µM (active)	–	–
N=C(N)NS(=O)(=O)c1ccc(NNc2c3ccccc3nc3c(C(=O)Nc4ccc(S(=O)(=O)Nc5ncccn5)cc4)cccc23)cc1	43.7 µM (inactive)	20.4 µM (inactive)	40.5 µM (inactive)	–	47.8 µM (inactive)	22.1 µM (inactive)	60.1 µM (inactive)	49.7 µM (inactive)	45.3 µM (inactive)	31.6 µM (inactive)	37.5 µM (inactive)	> 100 µM (inactive)	38.4 µM (inactive)	35.3 µM (inactive)	30.6 µM (inactive)	33.7 µM (inactive)	–	22.9 µM (inactive)	39 µM (inactive)	–
COC(=O)CC(SCCO)SCCO	–	> 100 µM (inactive)	> 100 µM (inactive)	> 100 µM (inactive)	> 100 µM (inactive)	> 100 µM (inactive)	> 100 µM (inactive)	> 100 µM (inactive)	> 100 µM (inactive)	> 100 µM (inactive)	> 100 µM (inactive)	> 100 µM (inactive)	> 100 µM (inactive)	> 100 µM (inactive)	> 100 µM (inactive)	> 100 µM (inactive)	> 100 µM (inactive)	> 100 µM (inactive)	–	–
CN1C2=C(CC3=C1CC(C)(C)CC3=O)C(=O)CC(C)(C)C2	> 100 µM (inactive)	> 100 µM (inactive)	–	> 100 µM (inactive)	> 100 µM (inactive)	–	–	–	–	> 100 µM (inactive)	> 100 µM (inactive)	> 100 µM (inactive)	> 100 µM (inactive)	> 100 µM (inactive)	> 100 µM (inactive)	> 100 µM (inactive)	> 100 µM (inactive)	> 100 µM (inactive)	–	> 100 µM (inactive)
CN(C)/C=N\c1cccc2c1NSN2	> 100 µM (inactive)	> 100 µM (inactive)	> 100 µM (inactive)	> 100 µM (inactive)	> 100 µM (inactive)	> 100 µM (inactive)	> 100 µM (inactive)	> 100 µM (inactive)	> 100 µM (inactive)	> 100 µM (inactive)	> 100 µM (inactive)	> 100 µM (inactive)	> 100 µM (inactive)	> 100 µM (inactive)	> 100 µM (inactive)	> 100 µM (inactive)	> 100 µM (inactive)	> 100 µM (inactive)	> 100 µM (inactive)	–
C=C(Cl)C(C)(Cl)CCC(Cl)C(C)(C)Cl (stereo not given)	46.9 µM (inactive)	70.8 µM (inactive)	44.8 µM (inactive)	42.3 µM (inactive)	44.8 µM (inactive)	38.2 µM (inactive)	> 100 µM (inactive)	44.2 µM (inactive)	> 100 µM (inactive)	> 100 µM (inactive)	51.6 µM (inactive)	> 100 µM (inactive)	46 µM (inactive)	83.2 µM (inactive)	87.9 µM (inactive)	54.7 µM (inactive)	27 µM (inactive)	43.7 µM (inactive)	–	> 100 µM (inactive)
COc1ccccc1N(CN1C(=O)CCC1C(=O)O)C(C)=O (stereo not given)	> 100 µM (inactive)	> 100 µM (inactive)	> 100 µM (inactive)	> 100 µM (inactive)	> 100 µM (inactive)	> 100 µM (inactive)	> 100 µM (inactive)	> 100 µM (inactive)	> 100 µM (inactive)	> 100 µM (inactive)	> 100 µM (inactive)	> 100 µM (inactive)	> 100 µM (inactive)	> 100 µM (inactive)	> 100 µM (inactive)	> 100 µM (inactive)	> 100 µM (inactive)	> 100 µM (inactive)	> 100 µM (inactive)	–
COc1c2c3c4c(c(OC)c(=O)c5c(O)cc(OC)c(c6c(OC)cc(O)c(c1=O)c63)c54)C(C(C)O)C2C(C)O (stereo not given)	0.405 µM (active)	1.07 µM (active)	0.789 µM (active)	0.796 µM (active)	0.735 µM (active)	1.17 µM (inactive)	2.43 µM (inactive)	0.767 µM (active)	0.689 µM (active)	0.789 µM (active)	0.522 µM (active)	0.923 µM (active)	0.871 µM (active)	0.798 µM (active)	0.873 µM (active)	0.594 µM (active)	0.855 µM (active)	1.16 µM (inactive)	1.18 µM (inactive)	–
CC[N+]1(C)CCC(O)(c2ccc(C)cc2)C(C(=O)c2ccc(C)cc2)C1 (stereo not given)	> 100 µM (inactive)	44.8 µM (inactive)	25.5 µM (inactive)	> 100 µM (inactive)	> 100 µM (inactive)	26.1 µM (inactive)	> 100 µM (inactive)	> 100 µM (inactive)	> 100 µM (inactive)	20.1 µM (inactive)	20.6 µM (inactive)	> 100 µM (inactive)	21.7 µM (inactive)	> 100 µM (inactive)	> 100 µM (inactive)	> 100 µM (inactive)	> 100 µM (inactive)	42.7 µM (inactive)	–	> 100 µM (inactive)
Fc1ccc(-c2sc(-c3cccs3)cc2Cc2cccs2)cc1	> 100 µM (inactive)	> 100 µM (inactive)	> 100 µM (inactive)	> 100 µM (inactive)	> 100 µM (inactive)	> 100 µM (inactive)	> 100 µM (inactive)	–	–	> 100 µM (inactive)	> 100 µM (inactive)	> 100 µM (inactive)	> 100 µM (inactive)	> 100 µM (inactive)	> 100 µM (inactive)	–	> 100 µM (inactive)	80.2 µM (inactive)	> 100 µM (inactive)	> 100 µM (inactive)
CNc1cccc2c1C(C)C[C@]1(C)C(=O)Nc3ccccc3[C@H]21 (stereo not given in full)	–	20.2 µM (inactive)	29.8 µM (inactive)	24.9 µM (inactive)	20 µM (inactive)	19.5 µM (inactive)	39.1 µM (inactive)	26.6 µM (inactive)	19.8 µM (inactive)	17.9 µM (inactive)	33.9 µM (inactive)	23.1 µM (inactive)	17.5 µM (inactive)	60.1 µM (inactive)	26.1 µM (inactive)	27.4 µM (inactive)	27.7 µM (inactive)	28 µM (inactive)	41.1 µM (inactive)	–
O=C(Nc1nc(C23CC4CC(CC(C4)C2)C3)cs1)c1cc2c(ccc3ccccc32)oc1=O	> 100 µM (inactive)	–	> 100 µM (inactive)	> 100 µM (inactive)	> 100 µM (inactive)	> 100 µM (inactive)	> 100 µM (inactive)	> 100 µM (inactive)	> 100 µM (inactive)	> 100 µM (inactive)	> 100 µM (inactive)	> 100 µM (inactive)	> 100 µM (inactive)	> 100 µM (inactive)	> 100 µM (inactive)	> 100 µM (inactive)	> 100 µM (inactive)	> 100 µM (inactive)	–	> 100 µM (inactive)
CC(OC(C)(C)C)[C@H](NC(=O)OCc1ccccc1)C(=O)NC(OCc1ccccc1)[C@H]1COC(C)(C)O1 (stereo not given in full)	> 10 µM (inactive)	> 10 µM (inactive)	> 10 µM (inactive)	> 10 µM (inactive)	39.3 µM (inactive)	> 10 µM (inactive)	> 100 µM (inactive)	> 10 µM (inactive)	> 10 µM (inactive)	> 10 µM (inactive)	> 10 µM (inactive)	> 10 µM (inactive)	> 10 µM (inactive)	> 10 µM (inactive)	> 10 µM (inactive)	> 10 µM (inactive)	> 10 µM (inactive)	> 10 µM (inactive)	–	> 10 µM (inactive)
COC(=O)/C=C(/OC)[C@H](C)[C@H](/C=C/c1csc(-c2csc(C(C)C)n2)n1)OC	0.149 µM (active)	1.44 µM (inactive)	3.38 µM (inactive)	4.19 µM (inactive)	0.136 µM (active)	18.8 µM (inactive)	–	–	> 43.3 µM (inactive)	7.45 µM (inactive)	0.741 µM (active)	0.841 µM (active)	0.35 µM (active)	0.569 µM (active)	1.52 µM (inactive)	0.126 µM (active)	> 57.8 µM (inactive)	0.29 µM (active)	1.4 µM (inactive)	4.8 µM (inactive)
N#C/C(=C/n1c(=S)[nH]c2ccccc21)C(N)=O	> 100 µM (inactive)	> 100 µM (inactive)	> 100 µM (inactive)	> 100 µM (inactive)	> 100 µM (inactive)	> 100 µM (inactive)	> 100 µM (inactive)	> 100 µM (inactive)	> 100 µM (inactive)	> 100 µM (inactive)	> 100 µM (inactive)	> 100 µM (inactive)	> 100 µM (inactive)	> 100 µM (inactive)	> 100 µM (inactive)	> 100 µM (inactive)	> 100 µM (inactive)	> 100 µM (inactive)	> 100 µM (inactive)	–
